Laboratory results as given in patent US9687539B2, “CD4+ T survivin epitopes and uses thereof” (Commissariat a I'Energie Atomique, priority 2005, dated 2017).
Where a chain is given by its changes, count along the chain named. Where two headings read alike, the source gives them in different places. Residues, ends and D or L forms follow the SMILES beside them. No end group written: not given here.

Assays:
[1] = system: 12 predominant HLA II molecules; experiment: Binding to the 12 predominant HLA II molecules, summary; design: species or system human; settings: for No. of molecules fixed: number of the 12 predominant HLA II molecules bound (IC50 < 1000 nM)
Text: The assays for binding to HLA II molecules are competitive binding assays with immunoenzymatic visualization, as described in U.S. Pat. No. 6,649,166, Texier et al., J. Immunol., 2000, 164, 3177-3184 and Texier et al., Eur. J. Immunol., 2001, 31, 1837-1846, for the HLA-DR molecules, and in PCT international application WO 03/040299 and Castelli et al., J. Immunol., 2002, 169, 6928-6934, for the HLA-DP4 molecule. The use of these assays for measuring the binding activity of peptides derived from various antigens is illustrated in U.S. Pat. No. 6,649,166 and PCT international applications WO 02/090382, WO 03/040299 and WO 2004/014936.
The sensitivity of each assay is reflected by the IC50 values observed with the nonbiotinylated peptides which correspond to the tracers; the IC50 values of the tracers vary by a factor of less than three.

[2] = system: HLA-DP4-restricted CD4+ T lymphocyte lines; experiment: Immunogenicity in an HLA-DP4 context, IFN-γ ELISPOT; type: cell-based, human; settings: for Number of spots: peptide presented by HLA-DP4, mean (±SD)
Description: HLA-DP4-restricted survivin-specific CD4+ T lymphocyte lines were produced using the mixture of peptides 84-98, 93-107, 90-104 and 19-33 for the stimulation of the autologous dendritic cells, according to a protocol similar to that use for the production of T lymphocyte lines restricted to the set of HLA-DR molecules predominant in the Caucasian population.
The anti-IFN-γ human monoclonal antibody 1-D1K (MABTECH), diluted to 10 μg/ml in PBS buffer, was adsorbed onto nitrocellulose plates (Multiscreen HA; Millipore) for 1 hour at 37° C. The plates were subsequently washed with PBS and then saturated with complete IMDM medium (100 μl/well), for 1 h at 37° C. The antigen-presenting cells are autologous PBMCs, immature autologous dendritic cells prepared as specified above, or a mouse fibroblast line (line L), transfected with the cDNA encoding one of the HLA-DR or HLA-DP4 molecules to be tested (Yu et al. Hum. Immunol. 1990, 27, 132-135), so as to verify the specificity of the lines with respect to the HLA-DR and HLA-DP4 molecules. The antigen-presenting cells (10^5 autologous PBMCs, 3×10^4 transfected L cells or 2×10^4 immature autologous dendritic cells) and the CD4+ T lymphocytes to be tested (10^4 CD4+ T lymphocytes) were subsequently added to the plates and incubated for 24 h at 37° C., in the presence or absence of a single peptide (2 μg), of a mixture of peptides (2 μg of each peptide) or of a protein (Bir5 or Nef). The proteins (1 μM) are incubated for 4 h at 37° C. in the presence of immature dendritic cells, and then washed. The peptides are added directly to the plates. For the dose-response analyses, the peptides are used at various concentrations ranging from 10^−5 to 10^−10 M. After three successive washes with water, and then with PBS buffer-0.05% Tween and, finally, with PBS alone, 100 μl of biotin-conjugated anti-IFN-γ secondary antibody (7-B6-1-biotin, MABTECH), diluted to 0.25 μg/ml in PBS containing 1% BSA, were added to each well. After incubation for one hour, the plates were washed again and incubated with 100 μl/well of extravidin-phosphatase (E-2636, SIGMA), diluted to 1/6000. After washing of the plates in PBS buffer, 100 μl of NBT/BCIP substrate (B-5655, SIGMA), diluted in water (one tablet in 10 ml of water), were distributed into each well. The immunoenzymatic revelation was stopped after approximately 10 minutes by thorough rinsing of the plates in water, and the colored spots were counted using an automatic reader (ELISPOT reader system, AID). The lines are considered to be positive when the number of spots is greater than three times that obtained with the negative control (control without peptides) with a minimum of 50 spots. The control without presenting cells makes it possible to verify the specificity of the response for HLA-DR or HLA-DP4 (restriction control).

HLA-DR13 (DRB1*1301) = HLA-DR13 (DRB1*1301) (Homo sapiens, UniProt P01903+P01911, A100E/A169T/K41T/L162R/M171V/P40S/Q125H/Q178H/Q39Y/Q99D/R42S/S66N/T262R/W38E/Y61H); experiment: Competitive HLA II/peptide binding assay, HLA-DR13
HLA-DP402 (DP*0402) = target: T1, HLA-DP402 (DP*0402) (Homo sapiens, UniProt P04440+P20036, A65V/A84D/A85E/L207M); experiment: biochemical; settings: competition with biotinylated tracer; 3 independent experiments; read-out: Binding activity DP402 (IC50)
T1 sequence (P04440 30-258 A65V/A84D/A85E): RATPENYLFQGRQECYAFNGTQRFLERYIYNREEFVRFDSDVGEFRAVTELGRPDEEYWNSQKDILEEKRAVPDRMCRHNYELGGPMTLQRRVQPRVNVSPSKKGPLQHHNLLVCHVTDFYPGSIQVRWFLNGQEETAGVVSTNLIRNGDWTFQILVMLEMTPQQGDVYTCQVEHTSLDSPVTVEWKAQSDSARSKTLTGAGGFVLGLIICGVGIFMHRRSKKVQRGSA
T1 sequence (P20036 29-260): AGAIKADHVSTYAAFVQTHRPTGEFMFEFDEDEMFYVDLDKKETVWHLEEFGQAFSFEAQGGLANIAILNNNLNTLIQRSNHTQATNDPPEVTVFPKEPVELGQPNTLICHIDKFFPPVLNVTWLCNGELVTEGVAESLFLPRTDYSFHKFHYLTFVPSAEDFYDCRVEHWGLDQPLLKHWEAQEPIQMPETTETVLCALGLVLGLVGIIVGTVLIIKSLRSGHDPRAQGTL

HLA-DR15 (DRB1*1501) = HLA-DR15 (DRB1*1501) (Homo sapiens, UniProt P01903+P01911); experiment: Competitive HLA II/peptide binding assay, HLA-DR15; settings: competition with biotinylated tracer; 3 independent experiments
HLA-DRB4 (DRB4*0101) = HLA-DRB4 (DRB4*0101) (Homo sapiens, UniProt P01903+P13762, G164S); experiment: Competitive HLA II/peptide binding assay, HLA-DRB4; settings: competition with biotinylated tracer; 3 independent experiments
HLA-DR3 (DRB1*0301) = HLA-DR3 (DRB1*0301) (Homo sapiens, UniProt P01903+P01911, A100K/A102G/A103R/A169T/F55Y/I96L/K41T/L162R/M171V/P40S/Q125H/Q178H/Q39Y/R42S/S66N/T106N/T262R/W38E/Y61H); experiment: biochemical; settings: competition with biotinylated tracer; 3 independent experiments; read-out: Binding activity DR3 (IC50)
HLA-DRB5 (DRB5*0101) = HLA-DRB5 (DRB5*0101) (Homo sapiens, UniProt P01903+Q30154); experiment: Competitive HLA II/peptide binding assay, HLA-DRB5; settings: competition with biotinylated tracer; 3 independent experiments
HLA-DP401 (DP*0401) = target: T2, HLA-DP401 (DP*0401) (Homo sapiens, UniProt P04440+P20036); experiment: biochemical; settings: competition with biotinylated tracer; 3 independent experiments; read-out: Binding activity DP401 (IC50)
T2 sequence (P04440 30-258): T1 sequence (P04440 30-258 A65V/A84D/A85E) with V36A, D55A, E56A
T2 sequence (P20036 29-260): T1 sequence (P20036 29-260)

In the case of CC[C@H](C)[C@H](N)C(=O)N[C@@H](CO)C(=O)N[C@H](C(=O)N[C@@H](Cc1ccccc1)C(=O)N[C@@H](CCCCN)C(=O)N[C@@H](CC(N)=O)C(=O)N[C@@H](Cc1c[nH]c2ccccc12)C(=O)N1CCC[C@H]1C(=O)N[C@@H](Cc1ccccc1)C(=O)N[C@@H](CC(C)C)C(=O)N[C@@H](CCC(=O)O)C(=O)NCC(=O)N[C@@H](CS)C(=O)N[C@@H](C)C(=O)N[C@@H](CS)C(=O)O)[C@@H](C)O [peptide 19-33, I S T F K N W P F L E G C A C], the “No. of molecules fixed” value [1] is reported as 7, the Number of spots ([2]; donor 169, line 169-14) is reported as 1 (±0) and the Number of spots ([2]; donor 169, line 169-34) is reported as 228 (±17). The Number of spots ([2]; donor 169, line 169-56) was 195 (±0), the Number of spots ([2]; donor 171, line 171-3) was 5 (±0) and the “Immunogenicity in an HLA-DP4 context” value ([2]; mixture of peptides 84-98, 93-107, 90-104 and 19-33 used for stimulation) was “immunogenic in an HLA-DP4 context”.

For “TERVRLVTRHIYNREE [B1 21-36, reference compound]”, the IC50 (HLA-DR13 (DRB1*1301); DRB1*1301, tracer 100 nM, pH 4.5, 72 h, read-out: IC50 (nM) of nonbiotinylated tracer peptide) was 800 nM.

In the case of “QPFLKDHRISTFKNW [11-25, Q P F L K D H R I S T F K N W]”, the “No. of molecules fixed” value [1] is reported as 2.

CC(C)C[C@H](NC(=O)[C@H](CCC(=O)O)NC(=O)[C@H](CCCCN)NC(=O)[C@H](Cc1ccccc1)NC(=O)[C@H](CS)NC(=O)[C@H](Cc1ccccc1)NC(=O)[C@H](Cc1ccccc1)NC(=O)[C@H](CS)NC(=O)[C@@H](N)CCC(N)=O)C(=O)N[C@@H](CCC(=O)O)C(=O)NCC(=O)N[C@@H](Cc1c[nH]c2ccccc12)C(=O)N[C@@H](CCC(=O)O)C(=O)N1CCC[C@H]1C(=O)N[C@@H](CC(=O)O)C(=O)O [56-70, Q C F F C F K E L E G W E P D] (H-QCFFCFKELEGWEPD-OH; N-terminus and C-terminus assumed) was tested, and the “No. of molecules fixed” value [1] was 1.

In the case of CC(C)C[C@H](NC(=O)[C@H](CC(=O)O)NC(=O)[C@@H]1CCCN1)C(=O)N[C@@H](C)C(=O)N[C@@H](CCC(N)=O)C(=O)N[C@@H](CS)C(=O)N[C@@H](Cc1ccccc1)C(=O)N[C@@H](Cc1ccccc1)C(=O)N[C@@H](CS)C(=O)N[C@@H](Cc1ccccc1)C(=O)N[C@@H](CCCCN)C(=O)N[C@@H](CCC(=O)O)C(=O)N[C@@H](CC(C)C)C(=O)N[C@@H](CCC(=O)O)C(=O)NCC(=O)O [52-66, P D L A Q C F F C F K E L E G] (H-PDLAQCFFCFKELEG-OH; N-terminus and C-terminus assumed), the “Binding specificity for HLA II molecules” value [1] is reported as “bind only to the HLA-DR11 molecule” and the “No. of molecules fixed” value [1] is reported as 1.

For “E E L T L G E F L K L D R E R (EELTLGEFLKLDRER; listed as Homo sapiens) [94-108, 15-mer of human survivin, positions 94-108; insoluble peptide]”, the “No. of molecules fixed” value [1] was 0.

For CC[C@H](C)[C@H](NC(=O)[C@H](CCCNC(=N)N)NC(=O)[C@H](Cc1c[nH]cn1)NC(=O)[C@H](CC(=O)O)NC(=O)[C@H](CCCCN)NC(=O)[C@H](CC(C)C)NC(=O)[C@H](Cc1ccccc1)NC(=O)[C@@H]1CCCN1C(=O)[C@H](CCC(N)=O)NC(=O)[C@H](Cc1c[nH]c2ccccc12)NC(=O)[C@H](C)NC(=O)[C@@H]1CCCN1)C(=O)N[C@@H](CO)C(=O)N[C@H](C(=O)N[C@@H](Cc1ccccc1)C(=O)O)[C@@H](C)O [8-22, P A W Q P F L K D H R I S T F], the IC50 (HLA-DP402 (DP*0402)) was 10.5 µM, the “No. of molecules fixed” value [1] was 1 and the IC50 (HLA-DR15 (DRB1*1501)) was 5.2 µM. For the same molecule, the IC50 (HLA-DRB4 (DRB4*0101)) was 29 µM.

With “LSVKKQFEELTLGEF [87-101, L S V K K Q F E E L T L G E F]” the “No. of molecules fixed” value [1] was 2, the IC50 (HLA-DR13 (DRB1*1301); competition with biotinylated tracer, 3 independent experiments, read-out: Binding activity DR13 (IC50)) was over 100000 nM and the IC50 (HLA-DR3 (DRB1*0301)) was over 100 µM. For the same molecule, the IC50 (HLA-DRB5 (DRB5*0101)) was 6 µM.

CC(C)C[C@H](NC(=O)[C@H](Cc1ccccc1)NC(=O)[C@@H]1CCCN1C(=O)[C@H](Cc1c[nH]c2ccccc12)NC(=O)[C@H](CC(N)=O)NC(=O)[C@@H](N)CCCCN)C(=O)N[C@@H](CCC(=O)O)C(=O)NCC(=O)N[C@@H](CS)C(=O)N[C@@H](C)C(=O)N[C@@H](CS)C(=O)N[C@H](C(=O)N1CCC[C@H]1C(=O)N[C@@H](CCC(=O)O)C(=O)N[C@@H](CCCNC(=N)N)C(=O)O)[C@@H](C)O [23-37, K N W P F L E G C A C T P E R] (H-KNWPFLEGCACTPER-OH; N-terminus and C-terminus assumed) was tested, and the “No. of molecules fixed” value [1] was 1.

In the case of CC[C@H](C)[C@H](NC(=O)[C@H](CCCCN)NC(=O)[C@@H](N)CC(N)=O)C(=O)N[C@@H](C)C(=O)N[C@@H](CCCCN)C(=O)N[C@@H](CCC(=O)O)C(=O)N[C@H](C(=O)N[C@@H](CC(N)=O)C(=O)N[C@@H](CC(N)=O)C(=O)N[C@@H](CCCCN)C(=O)N[C@@H](CCCCN)C(=O)N[C@@H](CCCCN)C(=O)N[C@@H](CCC(=O)O)C(=O)N[C@@H](Cc1ccccc1)C(=O)N[C@@H](CCC(=O)O)C(=O)O)[C@@H](C)O [111-125, N K I A K E T N N K K K E F E], the IC50 (HLA-DP402 (DP*0402)) is reported as over 100 µM, the IC50 (HLA-DP401 (DP*0401)) is reported as over 100 µM and the “No. of molecules fixed” value [1] is reported as 1.
